# Measured values reported in US12031897B2, “Target-locking single-molecule nanoscopy” (Memorial Sloan Kettering Cancer Center, priority 2019, dated 2024).
# What was measured:
# [1] = test system: Pol II (SiR-Rpb1) at the CMV mini-gene transcription site; experiment: SiR-Rpb1 (Pol II) dynamics at the CMV mini-gene after inhibitor addition (target-locking); assay type: cell-based, human; details: for SiR-Rpb1 exponential decay time (ii) individual target-locked transcription site traces: 10 μM flavopiridol or 10 μM triptolide, mean±S.D.; for SiR-Rpb1 exponential decay time (i) fit parameters of total signal from different transcription sites: after adding 10 μM flavopiridol or 10 μM triptolide, target-locking
# Method: To visualize Pol II, example implementations may express a SNAP-tagged Rpb1 Pol II subunit (SNAP-Rpb1). […] Importantly, the brightness and gradual SiR-Rpb1 photobleaching within these foci (see below) indicates multiple Pol II molecules accumulating at the mini-gene. Previously, it was unclear to what extent transcription is carried out by individual, solitary Pol II molecules, or whether it involves multiple Pol II molecules. When Pol II clustering occurs, as typically little information on genomic position and promoter activity is simultaneously available, it has been hard to establish whether and how this phenomenon relates to transcription. Our observations reveal that focal Pol II accumulation and transcription activity from a specific promoter at a specific genomic locus are spatially and temporally linked.
# Regarding target-locking probes nanometer Pol II organization at the transcription site, motion blur and bleaching during scanning distorts the 3D images, limits the observation times and makes quantifying and tracking Pol II at the transcription site, with single-molecule sensitivity and higher spatio-temporal resolution, extremely difficult (FIGS. 11D, 11E). To eliminate scanning, example implementations may develop a target-locking system that obtains single-shot spatial information (FIG. 10A) and actively stabilizes the transcription site at the (common) excitation maximum/STED zero. With feedback loop speeds up to 30 fps, tdPCP-EGFP is locked within ˜30 nm root-mean-square (r.m.s.) from the desired set-point (FIGS. 4E, 4F, 11F). Target-locking at the excitation maximum provides the same total photon counts as scanning, but at orders-of-magnitude lower power, improving photostability. […]
# Pol II closely follows the fate of nascent transcripts: SiR-Rpb1 accumulation gradually decreases after inhibitor addition (FIGS. 3B, 3C and 13H decay times 160-240 sec). […] The good agreement with decay rates measured optically further supports the notion that the accumulated SiR-Rpb1 signal reflects multiple elongating/terminating Pol IIs.
# For active feedback control, example implementations may adopt a custom LabVIEW program, optimized for fast CCD acquisition (via, e.g., detection system 150), real-time image analysis and active microscope stabilization using nanopositioning equipment (e.g., platform 190). The images obtained from the Ixon3 897 detector (e.g., detection system 150) were analyzed on the fly by non-linear least-squares fitting of a 21×21 pixel ROI to a 2D Gaussian peak function implemented in LabVIEW. […] The coordinates returned by the 2D Gaussian peak fit were passed onto a PID controller that calculated the desired position correction that was commanded to the nanopositioning stage controller. […]
# [2] = test system: Pol II (FLAG-SNAP-Rpb1) at the CMV mini-gene; experiment: ChIP-qPCR of Pol II at the CMV mini-gene after flavopiridol treatment (U2-OS cells); assay type: cell-based, human; details: 10 μM flavopiridol, by the 5-minute time point; clone 5 cells
# Method: ChIP-qPCR analysis of Pol II after flavopiridol treatment. U2-OS cells. Fast chromatin immuno-precipitation was performed as described. Confluent 15 cm dishes (20×10^6 cells) were treated with 10 μM Flavopiridol or DMSO for the indicated times. Methanol-free formaldehyde (Thermo Fisher) was then directly added to the media to 1% v/v final concentration, and dishes were immediately placed on a rotator/shaker for 10 minutes at RT. Formaldehyde was quenched with 125 mM glycine for 5 min at RT, and cells were scraped and collected with centrifugation (2,000 g, 5 min at 4° C.) and washed twice with cold PBS. Cells were lysed in buffer IP (150 mM NaCl, 50 mM Tris-HCl pH 7.5, 5 mM EDTA, 0.5% v/v NP-40, 1.0% v/v Triton X-100) containing protease inhibitors, centrifuged (12,000 g, 1 min at 4° C.), and after one wash, the pellet was resuspended in buffer IP+protesase inhibitors. Volume equivalent to 4×10^6 cells was sonicated to shear the chromatin (Bioruptor indirect sonicator), and cleared using centrifugation (12,000 g, 10 min at 4° C.). […] Eluted chromatin was analyzed with qPCR, using primer pairs specific for different mini-gene regions (FIGS. 13I, 13J).
Compound,SiR-Rpb1 exponential decay time (ii) individual target-locked transcription site traces [1] [s],SiR-Rpb1 exponential decay time (i) fit parameters of total signal from different transcription sites [1] [s],Pol II ChIP signal at mini-gene body and terminator regions [2]
CC(C)[C@]12O[C@H]1[C@@H]1O[C@]13[C@]1(O[C@H]1C[C@H]1C4=C(CC[C@@]13C)C(=O)OC4)[C@@H]2O [triptolide],242 ± 148,239 ± 24,
CN1CC[C@H](c2c(O)cc(O)c3c(=O)cc(-c4ccccc4Cl)oc23)[C@H](O)C1 [flavopiridol],162 ± 71,238 ± 49,near-complete loss
